Here are results for seven compounds from ChEMBL document CHEMBL3259630, “Interkingdom pharmacology of Angiotensin-I converting enzyme inhibitor phosphonates produced by actinomycetes” (ACS Med Chem Lett, 2014).

For assay [1], the target named is T1, Angiotensin-converting enzyme (Oryctolagus cuniculus, UniProt P12822).
T1 sequence (P12822 whole entry): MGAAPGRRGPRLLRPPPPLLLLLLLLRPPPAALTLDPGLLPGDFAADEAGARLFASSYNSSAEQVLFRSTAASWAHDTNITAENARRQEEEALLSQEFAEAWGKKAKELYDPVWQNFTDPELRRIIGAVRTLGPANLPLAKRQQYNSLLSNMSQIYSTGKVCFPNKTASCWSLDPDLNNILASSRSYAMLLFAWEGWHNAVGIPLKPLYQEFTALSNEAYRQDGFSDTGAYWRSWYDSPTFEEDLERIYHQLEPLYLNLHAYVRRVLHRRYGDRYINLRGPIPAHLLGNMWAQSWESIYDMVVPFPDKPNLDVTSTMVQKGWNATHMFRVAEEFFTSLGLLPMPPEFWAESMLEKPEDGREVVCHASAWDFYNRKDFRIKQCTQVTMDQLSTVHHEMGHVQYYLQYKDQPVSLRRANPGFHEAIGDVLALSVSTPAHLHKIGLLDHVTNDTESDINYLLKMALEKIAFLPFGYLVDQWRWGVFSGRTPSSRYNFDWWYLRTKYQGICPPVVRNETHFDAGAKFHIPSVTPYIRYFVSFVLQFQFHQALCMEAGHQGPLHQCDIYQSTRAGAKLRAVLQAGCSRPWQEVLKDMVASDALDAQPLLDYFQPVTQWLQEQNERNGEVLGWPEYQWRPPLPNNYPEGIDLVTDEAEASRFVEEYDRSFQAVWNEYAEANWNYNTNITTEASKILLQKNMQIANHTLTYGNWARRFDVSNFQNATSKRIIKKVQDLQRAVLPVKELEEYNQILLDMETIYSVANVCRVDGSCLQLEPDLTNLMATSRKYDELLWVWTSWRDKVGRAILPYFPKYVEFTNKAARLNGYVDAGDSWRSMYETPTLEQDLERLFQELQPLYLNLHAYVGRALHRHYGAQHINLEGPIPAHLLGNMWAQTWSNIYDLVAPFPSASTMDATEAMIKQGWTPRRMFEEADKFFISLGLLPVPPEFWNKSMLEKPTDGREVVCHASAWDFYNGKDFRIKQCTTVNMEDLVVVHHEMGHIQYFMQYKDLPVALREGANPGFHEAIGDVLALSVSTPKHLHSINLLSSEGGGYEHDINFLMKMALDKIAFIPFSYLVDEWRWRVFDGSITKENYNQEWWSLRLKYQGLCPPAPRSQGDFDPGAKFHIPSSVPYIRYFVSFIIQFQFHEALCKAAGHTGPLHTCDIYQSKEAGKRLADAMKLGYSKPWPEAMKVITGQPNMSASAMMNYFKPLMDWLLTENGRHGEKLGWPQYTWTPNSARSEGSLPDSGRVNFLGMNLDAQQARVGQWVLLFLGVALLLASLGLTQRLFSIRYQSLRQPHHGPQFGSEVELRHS
Kind of assay: Inhibition of rabbit lung somatic ACE using FAPGG substrate.

Assay [2] concerns the target T2, Angiotensin-converting enzyme (Homo sapiens, UniProt P12821). The assay is described as follows: Inhibition of human ACE N-terminal domain using Cbz-Phe-His-Leu-OH substrate.
The target in assay [3] is T2, Angiotensin-converting enzyme. The assay is described as follows: Inhibition of human ACE C-terminal domain using Cbz-Phe-His-Leu-OH substrate.
Assay [4] is described as follows: Inhibition of Astrosporangium hypotensionis dicarboxypeptidase assessed as FAPGG substrate hydrolysis.
A short description of assay [5]: Inhibition of Schwanella oneidensis dipeptidyl carboxypeptidase assessed as FAPGG substrate hydrolysis.
Assay [6] addresses T3, Dipeptidyl carboxypeptidase (Escherichia coli (strain K12), UniProt P24171).
T3 sequence (P24171 whole entry): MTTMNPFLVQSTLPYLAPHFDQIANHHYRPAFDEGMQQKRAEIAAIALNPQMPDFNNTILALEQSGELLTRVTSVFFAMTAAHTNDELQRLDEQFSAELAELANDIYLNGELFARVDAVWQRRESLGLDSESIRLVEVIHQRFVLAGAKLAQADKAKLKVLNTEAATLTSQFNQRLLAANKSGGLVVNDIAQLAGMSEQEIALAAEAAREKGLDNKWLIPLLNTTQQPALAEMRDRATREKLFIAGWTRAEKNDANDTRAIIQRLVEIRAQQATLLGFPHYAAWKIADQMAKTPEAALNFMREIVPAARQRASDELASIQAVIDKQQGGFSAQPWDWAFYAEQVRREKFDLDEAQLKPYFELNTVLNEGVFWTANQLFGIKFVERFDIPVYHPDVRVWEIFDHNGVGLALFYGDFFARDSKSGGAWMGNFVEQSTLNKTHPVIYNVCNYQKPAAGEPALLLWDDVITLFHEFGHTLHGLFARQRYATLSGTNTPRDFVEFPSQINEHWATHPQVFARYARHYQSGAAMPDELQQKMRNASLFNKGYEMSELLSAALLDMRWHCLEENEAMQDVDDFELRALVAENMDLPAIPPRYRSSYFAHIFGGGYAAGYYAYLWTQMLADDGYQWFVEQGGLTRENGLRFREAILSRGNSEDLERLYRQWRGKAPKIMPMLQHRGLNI
The assay is described as follows: Inhibition of Escherichia coli dipeptidyl carboxypeptidase assessed as FAPGG substrate hydrolysis.

The target in assay [7] is T2, Angiotensin-converting enzyme. Kind of assay: Inhibition of ACE (unknown origin).

T2 sequence (P12821 whole entry, the tested form may be a part): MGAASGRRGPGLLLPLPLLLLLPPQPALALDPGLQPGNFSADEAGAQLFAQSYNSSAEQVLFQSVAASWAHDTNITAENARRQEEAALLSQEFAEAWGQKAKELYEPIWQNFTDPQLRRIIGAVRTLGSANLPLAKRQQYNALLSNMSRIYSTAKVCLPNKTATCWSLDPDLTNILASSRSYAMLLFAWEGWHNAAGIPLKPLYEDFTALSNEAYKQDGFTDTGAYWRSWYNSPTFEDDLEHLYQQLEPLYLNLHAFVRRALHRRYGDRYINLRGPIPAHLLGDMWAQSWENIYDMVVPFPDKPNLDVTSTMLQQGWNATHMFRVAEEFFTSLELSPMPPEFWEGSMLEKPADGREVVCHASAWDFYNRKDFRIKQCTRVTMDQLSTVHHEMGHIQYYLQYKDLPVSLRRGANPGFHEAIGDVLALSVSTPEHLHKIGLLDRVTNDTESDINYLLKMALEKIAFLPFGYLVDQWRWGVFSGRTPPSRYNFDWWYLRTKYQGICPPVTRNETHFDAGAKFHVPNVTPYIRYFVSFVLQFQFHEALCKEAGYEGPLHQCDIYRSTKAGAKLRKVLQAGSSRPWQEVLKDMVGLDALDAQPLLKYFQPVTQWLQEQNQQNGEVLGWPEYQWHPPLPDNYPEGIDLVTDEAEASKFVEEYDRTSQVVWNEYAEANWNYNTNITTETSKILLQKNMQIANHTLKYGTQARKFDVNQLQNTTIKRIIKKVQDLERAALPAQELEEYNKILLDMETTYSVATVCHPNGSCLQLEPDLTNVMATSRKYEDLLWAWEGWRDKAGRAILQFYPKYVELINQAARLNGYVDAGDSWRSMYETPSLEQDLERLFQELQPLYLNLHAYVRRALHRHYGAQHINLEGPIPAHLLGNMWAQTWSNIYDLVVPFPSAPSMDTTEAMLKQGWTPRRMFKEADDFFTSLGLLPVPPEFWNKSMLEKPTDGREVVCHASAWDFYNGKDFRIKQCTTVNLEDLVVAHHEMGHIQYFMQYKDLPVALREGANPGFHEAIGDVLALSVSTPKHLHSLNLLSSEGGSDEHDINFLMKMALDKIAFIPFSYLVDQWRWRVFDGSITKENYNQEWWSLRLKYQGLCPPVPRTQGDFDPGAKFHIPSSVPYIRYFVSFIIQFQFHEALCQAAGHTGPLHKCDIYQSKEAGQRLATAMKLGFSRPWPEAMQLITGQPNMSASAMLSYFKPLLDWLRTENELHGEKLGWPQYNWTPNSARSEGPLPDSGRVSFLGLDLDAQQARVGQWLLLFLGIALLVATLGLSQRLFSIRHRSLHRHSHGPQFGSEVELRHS

As to `CC[C@H](C)[C@H](NC(C)=O)C(=O)N[C@@H](CCC(=O)O)C(=O)N[C@@H](Cc1ccc(O)cc1)P(=O)(O)O`, half-maximal inhibition in assay [1] (IC50) required 5200 nM.
For the compound `CN[C@H](C(=O)N[C@@H](Cc1ccc(O)cc1)C(=O)N[C@@H](Cc1ccc(O)cc1)P(=O)(O)O)C(C)C`, the IC50 – broadly, the midpoint of a concentration-inhibition curve – in assay [2] is 52 nM; in assay [1] it was 140 nM; in assay [3], 54 nM.
Take `CC[C@H](C)[C@H](NC(C)=O)C(=O)N[C@@H](Cc1ccc(O)cc1)C(=O)N[C@@H](Cc1ccc(O)cc1)P(=O)(O)O`: the IC50 amounted to 110 nM in assay [2]; 40000 nM in assay [4]; 11000 nM in assay [5]; 25 nM in assay [1]; 150000 nM in assay [6]; 11 nM in assay [3]. Also, the Ki (as a rule, the dissociation constant of the complex between target and ligand, obtained from inhibition or displacement) in assay [2] was determined as 75 nM; in assay [3], 11 nM.
On to `CN[C@H](C(=O)N[C@@H](Cc1ccccc1)C(=O)N[C@@H](Cc1ccc(O)cc1)P(=O)(O)O)C(C)C`, for which the half-inhibitory concentration (IC50) in assay [2] was found to be 220 nM; in assay [1] it was 370 nM; in assay [3], 590 nM.
On to `CC[C@H](C)[C@H](NC(C)=O)C(=O)N[C@@H](Cc1ccccc1)C(=O)N[C@@H](Cc1ccc(O)cc1)P(=O)(O)O`, for which, in assay [1], inhibition was half-maximal at 35 nM (IC50).
In assay [7], `N[C@@H](Cc1ccc(O)cc1)P(=O)(O)O` registered an IC50 of more than 1000 nM.
As to `CC[C@H](C)[C@H](NC(C)=O)C(=O)N[C@@H](CC(C)C)C(=O)N[C@@H](Cc1ccc(O)cc1)P(=O)(O)O`, the figures for the IC50 in assay [2], in assay [1] and in assay [3] were 76 nM, 100 nM and 12 nM, respectively. For the same compound, the Ki in assay [2] is 33 nM; in assay [3], 21 nM.
